Key:
alemtuzumab = test: Cognate antibody binding to peptide beads, alemtuzumab; settings: 10 μm TentaGel beads; flow cytometry and fluorescent microscopy
rituximab = test: Cognate antibody binding to peptide beads, rituximab; settings: 10 μm TentaGel beads; flow cytometry and fluorescent microscopy
[1] = Alemtuzumab bead-based detection in normal human serum; type: binding; settings: alemtuzumab titrated into normal human serum; fluorescent secondary anti-human IgG; flow cytometry

## ACGSLSPSSCGGGS [pCp-1T]
alemtuzumab
  antibody binding to peptide beads: Specific cognate antibody binding was confirmed

## ACPTSNPSLCGGGS [pRTX-10T]
rituximab
  antibody binding to peptide beads: Specific cognate antibody binding was confirmed

## alemtuzumab: anti-CD52 monoclonal antibody (Genzyme)
[1]
  bead fluorescence vs alemtuzumab concentration: fluorescent signals correlated with the alemtuzumab concentration

Source: publication PMC2921063 (Cancer Chemotherapy and Pharmacology, 2010)
